Experimental data from article PMC10816640, “Discovery of Novel Diphenyl Acrylonitrile Derivatives That Promote Adult Rats’ Hippocampal Neurogenesis” (International Journal of Molecular Sciences, 2024).
“Also recorded” adds a separate entry of the source.

Key:
Format in all cases: in vivo, rat
[1] = system: newborn cells in the subgranular zone; assay: BrdU+ newborn cells, rats sacrificed 28 days after BrdU; details: nine-week-old rats (n = 2), i.p. 4.0 mg/kg/day for 28 days, BrdU pulse, Figure 7A
Protocol: The study employed a rat model, wherein nine-week-old rats were administered intraperitoneally with the compound at a dose of 4.0 mg/kg/day for 28 days and then treated with a pulse of BrdU. Instead of sacrificing the rats 24 h after the BrdU injections, the rats were sacrificed after another 28 days. The brains were then isolated and cryosectioned. Eight randomly selected slices were subjected to immunohistochemical staining. This staining enabled the co-localization of the BrdU-incorporated cells with the NeuN marker, enabling the definition of the compounds that could promote the differentiation of newborn neural progenitor cells into mature functional neurons. The compounds were dissolved in reagent-grade soybean oil containing 10% ethanol to reach a drug concentration of 2.8 mg/mL. The rats in the experimental group received intraperitoneal injections of the compounds at a dose of 4.0 mg/kg/d for 28 consecutive days. As a control, the vehicle group was administered injections of reagent-grade soybean oil containing 10% ethanol. BrdU (Sigma-Aldrich, St. louis, MA, USA) solution, prepared in physiological saline at a concentration of 10 mg/mL, was administered to all rats on day 29. Each rat received two injections of BrdU at a dosage of 50 mg/kg, with a 2 h interval between injections. The rats were euthanized 24 h (or 28 days) after the final BrdU injection. Two or four rats per group were anesthetized using pentobarbital sodium (70 mg/kg) and subsequently perfused with physiological saline. The brain tissue was carefully dissected and fixed in 4% paraformaldehyde at 4 °C for one week. Next, the brain tissue underwent dehydration using a phosphate-buffered saline (PBS) solution containing 20% to 30% sucrose. Finally, the brain tissue was cryosectioned into slices with a thickness of 30 μm, and eight slices were randomly selected for further analysis. The assessment of new cell proliferation was conducted using BrdU staining. To eliminate endogenous peroxides, sections were exposed to 1% H2O2 for 30 min at RT. Cellular denaturation was achieved by treating the sections with 2 M HCl at 37 °C for 1 h, followed by rinsing in 0.1 M borate buffer (pH 8.5). Tissue sections were subjected to blocking in a solution consisting of 5% goat serum and 0.5% Triton X-100 in PBS at RT for 1–2 h. The specimens were then incubated overnight at 4 °C with a mouse primary antibody specific to BrdU (diluted at 1:500; Millipore, Billerica, MA, USA). Subsequently, the DAB kit was employed for 2 h of incubation at RT. The differentiation process of NPCs was visualized through the utilization of the NeuN/BrdU double staining technique. Tissue sections were subjected to an incubation period in a blocking buffer at RT for 1 to 2 h. The specimens were exposed to a rabbit anti-NeuN antibody (diluted at 1:500, Abcam, Cambridge, MA, UK) and a primary antibody, BrdU (diluted at 1:500), overnight at 4 °C. Afterwards, the sections were treated with anti-mouse 488 and anti-rabbit TRITC secondary antibodies for 2 h at RT. The data were presented as mean ± SEM (standard error of the mean) and visualized using GRAPHPAD PRISM 6 (Graphpad Software, La Jolla, CA, USA). Statistical analysis was conducted utilizing one-way analysis of variance (ANOVA) followed by a post hoc test. Subsequent to the statistical treatment, the observed discrepancies were determined to be statistically significant (p < 0.05).

[2] = system: progenitor cells in the rodents’ hippocampi; assay: Proliferation stage of neurogenesis: BrdU labeling, rats sacrificed 24 h after BrdU; details: i.p. 4.0 mg/kg/day for 28 days, BrdU pulse, vs vehicle; for proliferation-promoting activity (number of BrdU+ newborn cells): eleven-week-old rats (n = 2)
From the text: (§1) Previous in vitro or in vivo studies mainly focused on stimulating the proliferation effect of the small molecules. In this study, a two-step protocol was employed. First, the stimulating function of the compounds on progenitor cells in the rodents’ hippocampi was examined with using bromodeoxyuridine (BrdU) labeling. Next, the potent compounds were further screened to ascertain their ability to promote the differentiation of neural progenitor cells, as confirmed by dual labeling of BrdU and NeuN (neuronal nuclear antigen).
Adult rats were administered intraperitoneally with the prepared compounds at a dose of 4.0 mg/kg/day for a period of 28 days, followed by a BrdU pulse. After 24 h, the rats were sacrificed, and their brain tissues were isolated and cryosectioned. Immunohistochemical staining was performed and eight brain tissue slices were randomly selected for statistical analyzing.
Eight-week-old (or 10-week-old) SD male rats purchased from Peking University Health Science Center were acclimatized for one week at the Beijing Institute of Technology. All experimental protocols strictly adhered to the regulations governing the management of experimental animals and the animal ethics policy of the Beijing Institute of Technology.
(§2) The compounds were dissolved in reagent-grade soybean oil containing 10% ethanol to reach a drug concentration of 2.8 mg/mL. The rats in the experimental group received intraperitoneal injections of the compounds at a dose of 4.0 mg/kg/d for 28 consecutive days. As a control, the vehicle group was administered injections of reagent-grade soybean oil containing 10% ethanol. BrdU (Sigma-Aldrich, St. louis, MA, USA) solution, prepared in physiological saline at a concentration of 10 mg/mL, was administered to all rats on day 29. Each rat received two injections of BrdU at a dosage of 50 mg/kg, with a 2 h interval between injections. The rats were euthanized 24 h (or 28 days) after the final BrdU injection.
(§3) Two or four rats per group were anesthetized using pentobarbital sodium (70 mg/kg) and subsequently perfused with physiological saline. The brain tissue was carefully dissected and fixed in 4% paraformaldehyde at 4 °C for one week. Next, the brain tissue underwent dehydration using a phosphate-buffered saline (PBS) solution containing 20% to 30% sucrose. Finally, the brain tissue was cryosectioned into slices with a thickness of 30 μm, and eight slices were randomly selected for further analysis.
The assessment of new cell proliferation was conducted using BrdU staining. To eliminate endogenous peroxides, sections were exposed to 1% H2O2 for 30 min at RT. Cellular denaturation was achieved by treating the sections with 2 M HCl at 37 °C for 1 h, followed by rinsing in 0.1 M borate buffer (pH 8.5). Tissue sections were subjected to blocking in a solution consisting of 5% goat serum and 0.5% Triton X-100 in PBS at RT for 1–2 h. The specimens were then incubated overnight at 4 °C with a mouse primary antibody specific to BrdU (diluted at 1:500; Millipore, Billerica, MA, USA). Subsequently, the DAB kit was employed for 2 h of incubation at RT.
(§4) The data were presented as mean ± SEM (standard error of the mean) and visualized using GRAPHPAD PRISM 6 (Graphpad Software, La Jolla, CA, USA). Statistical analysis was conducted utilizing one-way analysis of variance (ANOVA) followed by a post hoc test. Subsequent to the statistical treatment, the observed discrepancies were determined to be statistically significant (p < 0.05).

[3] = system: newborn neural progenitor cells (differentiation into mature neurons); assay: Differentiation stage of neurogenesis: NeuN/BrdU double staining, rats sacrificed 28 days after BrdU; details: nine-week-old rats (n = 4), i.p. 4.0 mg/kg, Figure 9, 4 mg/kg
From the text: as §1
The study employed a rat model, wherein nine-week-old rats were administered intraperitoneally with the compound at a dose of 4.0 mg/kg/day for 28 days and then treated with a pulse of BrdU. Instead of sacrificing the rats 24 h after the BrdU injections, the rats were sacrificed after another 28 days. The brains were then isolated and cryosectioned. Eight randomly selected slices were subjected to immunohistochemical staining. This staining enabled the co-localization of the BrdU-incorporated cells with the NeuN marker, enabling the definition of the compounds that could promote the differentiation of newborn neural progenitor cells into mature functional neurons.
as §2, §3
The differentiation process of NPCs was visualized through the utilization of the NeuN/BrdU double staining technique. Tissue sections were subjected to an incubation period in a blocking buffer at RT for 1 to 2 h. The specimens were exposed to a rabbit anti-NeuN antibody (diluted at 1:500, Abcam, Cambridge, MA, UK) and a primary antibody, BrdU (diluted at 1:500), overnight at 4 °C. Afterwards, the sections were treated with anti-mouse 488 and anti-rabbit TRITC secondary antibodies for 2 h at RT.
as §4

With `CN(C)C(=O)Nc1ccc(/C=C/c2ccc3c(c2)OCO3)cc1` [8c, (E)-3-(4-(2-(benzo[d][1, 3]dioxol-5-yl)vinyl)phenyl)-1,1-dimethylurea] the “proliferative activity over the longer 28 day period (number of BrdU+ cells)” value [1] was “could promote the proliferation of progenitors” and the “proliferation-promoting activity (number of BrdU+ newborn cells)” value ([2]; Figures 3-6) was “significant proliferation-promoting activity”.
With `O=C(Nc1ccc(/C=C/c2ccc3c(c2)OCO3)cc1)C1CCC1` [8d, (E)-N-(4-(2-(benzo[d][1, 3]dioxol-5-yl)vinyl)phenyl)cyclobutanecarboxamide] the “proliferative activity over the longer 28 day period (number of BrdU+ cells)” value [1] was “could promote the proliferation of progenitors” and the “proliferation-promoting activity (number of BrdU+ newborn cells)” value ([2]; Figures 3-6, 4 mg/kg/day) was “significant proliferation-promoting activity; also recorded: greater propensity for enhancing activity”.
For `N#CC1(C(=O)Nc2ccc(/C=C/c3ccc4c(c3)OCO4)cc2)CC1` [8e, (E)-N-(4-(2-(benzo[d][1, 3]dioxol-5-yl)vinyl)phenyl)-1-cyanocyclopropane-1-carboxamide], the “proliferation-promoting activity (number of BrdU+ newborn cells)” value ([2]; Figures 3-6) was “did not display significant activity”.
For `CN(C)S(=O)(=O)Cc1ccc(/C=C/c2ccc3c(c2)OCO3)cc1` [8j, (E)-1-(4-(2-(benzo[d][1, 3]dioxol-5-yl)vinyl)phenyl)-N,N-dimethylmethanesulfonamide], the “proliferation-promoting activity (number of BrdU+ newborn cells)” value ([2]; Figures 3-6, 4 mg/kg/day) was “significant proliferation-promoting activity; also recorded: greater propensity for enhancing activity”.
`O=S(=O)(Nc1ccc(/C=C/c2ccc3c(c2)OCO3)cc1)C1CC1` [8k, (E)-N-(4-(2-(benzo[d][1, 3]dioxol-5-yl)vinyl)phenyl)cyclopropanesulfonamide] was tested, and the “proliferative activity over the longer 28 day period (number of BrdU+ cells)” value [1] was “could promote the proliferation of progenitors” and the “proliferation-promoting activity (number of BrdU+ newborn cells)” value ([2]; Figures 3-6, 4 mg/kg/day) was “significant proliferation-promoting activity; also recorded: greater propensity for enhancing activity”.
For `COc1cc(/C=C/c2ccc(NC(=O)C(C)C)cc2)cc(OC)c1` [9b, (E)-N-(4-(3,5-dimethoxystyryl)phenyl)isobutyramide], the “proliferation-promoting activity (number of BrdU+ newborn cells)” value ([2]; Figures 3-6) was “significant proliferation-promoting activity”.
For `COc1cc(/C=C/c2ccc(NC(=O)c3ccccc3)c(F)c2)cc(OC)c1` [12f, (E)-N-(4-(3,5-dimethoxystyryl)-2-fluorophenyl)benzamide], the “proliferation-promoting activity (number of BrdU+ newborn cells)” value ([2]; Figures 3-6, 4 mg/kg/day) was “not and adversely affected the proliferative activity”.
For `CC(C)C(=O)Nc1ccc(C/C=C/c2ccc3c(c2)OCO3)cc1` [18b, (E)-N-(4-(3-(benzo[d][1, 3]dioxol-5-yl)allyl)phenyl)isobutyramide], the “proliferative activity over the longer 28 day period (number of BrdU+ cells)” value [1] was “did not exhibit significant proliferative activity” and the “proliferation-promoting activity (number of BrdU+ newborn cells)” value ([2]; Figures 3-6, 4 mg/kg/day) was “significant proliferation-promoting activity; also recorded: maintained the same proliferative activity as 9b”.
For `CC(C)C(=O)Nc1ccc(/C=C/Cc2ccc3c(c2)OCO3)cc1` [23b, (E)-N-(4-(3-(benzo[d][1, 3]dioxol-5-yl)prop-1-en-1-yl)phenyl)isobutyramide], the “proliferative activity over the longer 28 day period (number of BrdU+ cells)” value [1] was “did not exhibit significant proliferative activity” and the “proliferation-promoting activity (number of BrdU+ newborn cells)” value ([2]; Figures 3-6, 4 mg/kg/day) was “significant proliferation-promoting activity; also recorded: maintained the same proliferative activity as 9b”.
With `CS(=O)(=O)Nc1ccc(/C=C/Cc2ccc3c(c2)OCO3)cc1` [23i, (E)-N-(4-(3-(benzo[d][1, 3]dioxol-5-yl)prop-1-en-1-yl)phenyl)methanesulfonamide] the “proliferation-promoting activity (number of BrdU+ newborn cells)” value ([2]; Figures 3-6) was “decreased”.
For `COc1cc(C/C=C/c2ccc(NC(=O)C(C)C)cc2)cc(OC)c1` [24b, (E)-N-(4-(3-(3,5-dimethoxyphenyl)prop-1-en-1-yl)phenyl)isobutyramide], the “proliferative activity over the longer 28 day period (number of BrdU+ cells)” value [1] was “did not exhibit significant proliferative activity”.
In the case of `CC(=O)Nc1ccc(/C(C#N)=C/c2ccc3c(c2)OCO3)cc1` [29a, (Z)-N-(4-(2-(benzo[d][1, 3]dioxol-5-yl)-1-cyanovinyl)phenyl)acetamide], the “neurogenesis-promoting activity (number of NeuN+ and BrdU+ cells), differentiation stage” value [3] is reported as “did not show activity; also recorded: no significant neurogenesis-promoting activity” and the “proliferation-promoting activity (number of BrdU+ positive cells)” value ([2]; nine-week-old rats (n = 4), Figure 8) is reported as “inactive”.
`CC(=O)Nc1ccc(CN(C)Cc2ccc3c(c2)OCO3)cc1` [36a, N-(4-(((benzo[d][1, 3]dioxol-5-ylmethyl)(methyl)amino)methyl)phenyl)acetamide] was tested, and the “proliferation-promoting activity (number of BrdU+ newborn cells)” value ([2]; Figures 3-6) was “abolished the activity”.
`CC(C)C(=O)NCc1ccc(/C=C/c2ccc3c(c2)OCO3)cc1` [42b, (E)-N-(4-(2-(benzo[d][1, 3]dioxol-5-yl)vinyl)benzyl)isobutyramide] was tested, and the “proliferative activity over the longer 28 day period (number of BrdU+ cells)” value [1] was “remained devoid of proliferative activity” and the “proliferation-promoting activity (number of BrdU+ newborn cells)” value ([2]; Figures 3-6, 4 mg/kg/day) was “not and loss of activity”.
